# Reference: PubChem BioAssay AID1033 (Sanford-Burnham Center for Chemical Genomics, 2008)
# Calls of active or inactive are those of the source. How the calls were made is not given here.
# Target: Chaperone protein DnaK (Escherichia coli (strain K12)) (UniProt P0A6Y8)
# Test: binders of DnaK substrate-binding domain, biophysical, NMR, chaperone (AID 1033)
# Conditions: Purified DnaK SBD, NMR ligand binding
# Chain of Chaperone protein DnaK (Escherichia coli (strain K12)) (P0A6Y8 whole entry, looked up, the tested form may be a part): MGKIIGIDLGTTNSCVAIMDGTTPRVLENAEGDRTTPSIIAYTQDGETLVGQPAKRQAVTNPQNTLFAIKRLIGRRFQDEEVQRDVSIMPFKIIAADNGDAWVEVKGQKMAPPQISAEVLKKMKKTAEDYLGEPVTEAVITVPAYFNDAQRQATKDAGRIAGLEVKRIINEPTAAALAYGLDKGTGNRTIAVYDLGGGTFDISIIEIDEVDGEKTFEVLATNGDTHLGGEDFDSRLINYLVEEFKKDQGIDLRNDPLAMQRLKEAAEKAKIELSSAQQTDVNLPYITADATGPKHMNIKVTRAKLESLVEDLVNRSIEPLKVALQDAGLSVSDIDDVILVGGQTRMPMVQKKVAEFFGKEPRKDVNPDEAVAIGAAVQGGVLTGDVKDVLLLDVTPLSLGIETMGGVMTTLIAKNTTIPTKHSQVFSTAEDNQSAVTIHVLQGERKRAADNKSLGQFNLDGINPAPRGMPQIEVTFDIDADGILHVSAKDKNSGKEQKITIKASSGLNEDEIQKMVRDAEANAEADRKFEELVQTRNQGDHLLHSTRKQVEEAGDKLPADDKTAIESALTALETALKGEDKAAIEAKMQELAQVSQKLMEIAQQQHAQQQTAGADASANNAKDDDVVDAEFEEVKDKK
row,SMILES,Kd
1,S=C(c1ccc(N2CCOCC2)cc1)N1CCCCC1,> 4 mM (inactive)
2,CN1CCCC1C(=O)O (configuration not stated),> 4 mM (inactive)
3,O=C(O)CC(O)c1nc2ccccc2[nH]1 (configuration not stated),> 4 mM (inactive)
4,O=C1CNC(=O)/C1=C/c1ccc(O)cc1,> 4 mM (inactive)
5,O=C(O)c1csc(-c2cccs2)n1,> 4 mM (inactive)
6,Cc1nnc(SCC(N)=O)c2ccccc12,> 4 mM (inactive)
7,NC(=O)CSc1nnc(-c2cccnc2)o1,> 4 mM (inactive)
8,O=C(Nc1ccc2c(c1)CCC2)c1cnccn1,> 4 mM (inactive)
9,COC(=O)c1scc(C)c1N,> 4 mM (inactive)
10,S=C(c1ccc2c(c1)OCO2)N1CCCC1,> 4 mM (inactive)
11,Nc1ccccc1C(=O)CC(N)C(=O)O (configuration not stated),> 4 mM (inactive)
12,COc1ccc(Cl)cc1-c1nc(-c2ccncc2)no1,> 4 mM (inactive)
13,CCCNC(=O)CSc1nnc(C)s1,> 4 mM (inactive)
14,COCC(=O)Nc1nc2ccc(C)cc2s1,> 4 mM (inactive)
15,CNC(=S)Nc1ccc(C(=O)O)cc1,> 4 mM (inactive)
16,Cc1ccc(C(O)c2nccn2C)o1 (configuration not stated),> 4 mM (inactive)
17,O=C1Nc2ccc(S(=O)(=O)NCCO)c3cccc1c23,> 4 mM (inactive)
18,O=c1oc2ccccc2cc1O,> 4 mM (inactive)
19,CC(C)CCCC1(C)C=Cc2c(O)c3c(c(CCC(C)C)c2O1)OC12C(CC4CC1C(C)(C)OC2(CCC(C)C(=O)O)C4O)C3=O (configuration not stated),> 4 mM (inactive)
20,COC(=O)NNc1ncnc(N)c1[N+](=O)[O-],> 4 mM (inactive)
21,O=C1CCC(=O)N1c1nc2ccccc2s1,> 4 mM (inactive)
22,O=C1C[C@@H](c2ccc(O)cc2)Oc2cc(O)cc(O)c21,> 4 mM (inactive)

row,SMILES,Kd
1,CSc1ccccc1C(=O)N1CCOCC1,> 4 mM (inactive)
2,O=C(O)c1onc2ccccc12,> 4 mM (inactive)
3,c1ccc(-c2nc3ccccc3nc2-c2ccccn2)nc1,> 4 mM (inactive)
4,Cc1nc2ccccc2c(=O)n1N1C(=O)CCCC1=O,> 4 mM (inactive)
5,Nc1nc(SCc2ccccc2)ns1,> 4 mM (inactive)
6,CCN1CC2(C)CC[C@H](OC)[C@]34C2[C@H](O)C2(OCO[C@@]25C[C@H](OC)[C@H]2C[C@]3(O)C5[C@H]2O)C14,> 4 mM (inactive)
7,COc1ccccc1NC(=O)C1CCC(=O)N1 (configuration not stated),> 4 mM (inactive)
8,Cc1oc(S(=O)(=O)N2CCCCC2)cc1C(=O)O,> 4 mM (inactive)
9,Cc1oc(-c2ccccc2)nc1CC(=O)O,> 4 mM (inactive)
10,C=CC(C)(O)CC/C=C(\C)CCC=C(C)C (configuration not stated),> 4 mM (inactive)
11,S=c1nc(C2CC2)[nH]c2ccccc12,> 4 mM (inactive)
12,CC12CN([N+](=O)[O-])C3(C(N)=O)CC1CCC23C (configuration not stated),> 4 mM (inactive)
13,O=c1nc(N2CCCCC2)nc2n1CCO2,> 4 mM (inactive)
14,CC(=O)Nc1ccc(NC(C)=O)cc1,> 4 mM (inactive)
15,Cc1cc(-c2ccccc2)nc2cc(C(N)=O)nn12,> 4 mM (inactive)
16,COc1nc(N2CCOCC2)nc(N)c1[N+](=O)[O-],> 4 mM (inactive)
17,Cc1ccc(F)cc1NC(=O)c1ccc2c(c1)OCO2,> 4 mM (inactive)
18,Nc1[nH]c(=S)[nH]c(=O)c1-c1ccccc1,> 4 mM (inactive)
19,O=S1(=O)CCC(NCc2ccccc2)C1 (configuration not stated),> 4 mM (inactive)
20,O=C(NCC1CCNCC1)c1ccncc1,> 4 mM (inactive)
21,C=C1C2CC[C@@]3(C)[C@H](c4ccoc4)OC(=O)C[C@]13O[C@H]1CC(=O)C(C)(C)[C@H](C(OC(C)=O)C(=O)OC)[C@@]21C (some centres not stated),> 4 mM (inactive)
22,Cn1nnc2cc(C(=O)NC3=NCCS3)ccc21,> 4 mM (inactive)

row,SMILES,Kd
1,CC(O)c1ccc(C(C)O)cc1 (configuration not stated),> 4 mM (inactive)
2,O=C(O)c1ccccc1C(=O)NCC1CCCO1 (configuration not stated),> 4 mM (inactive)
3,COc1cccc(O)c1O,> 4 mM (inactive)
4,CC(=O)Nc1cccc(N2C(=O)CCC2=O)c1,> 4 mM (inactive)
5,CCCSc1nnc2[nH]c(=O)cc(N)n12,> 4 mM (inactive)
6,CC12OC(=O)CC3C(C)(C)[C@H](O)C=C[C@]3(C)C1CC[C@]1(C)C2=CC(=O)O[C@H]1c1ccoc1 (some centres not stated),> 4 mM (inactive)
7,CC(=O)NC1C(=O)Nc2c(C)cc(C)cc21 (configuration not stated),> 4 mM (inactive)
8,Cc1csc2nc(N)nn12,> 4 mM (inactive)
9,O=S(=O)(c1cccc(Cl)c1)N1CCCC1,> 4 mM (inactive)
10,N#Cc1nc(N2CCCCC2)nc(N2CCOCC2)n1,> 4 mM (inactive)
11,NC(=O)c1ccc(N2CCCCC2)c(N)c1,> 4 mM (inactive)
12,CCOC(=O)c1cnn2ccccc12,> 4 mM (inactive)
13,Nc1cccc(F)c1-c1ncon1,> 4 mM (inactive)
14,COc1ccc(C(=O)/C=C2\NC(=S)NC2=O)cc1,> 4 mM (inactive)
15,O=C(NCc1ccco1)c1ccc(Br)s1,> 4 mM (inactive)
16,CC1=C(/C=C/C(C)=C/C=C/C(C)=C/CO)C(C)(C)CCC1,> 4 mM (inactive)
17,C/C=C/C=N/NC(=O)c1ccc(=O)n(C)c1,> 4 mM (inactive)
18,O=C1CNC(=O)N1c1cccc(Cl)c1,> 4 mM (inactive)
19,Cc1ccc(-c2nc(N)n(C(=O)c3cccnc3)n2)cc1,> 4 mM (inactive)
20,Cc1cccc(CSc2nncc(=O)[nH]2)c1,> 4 mM (inactive)
21,Cc1nc(NC2=NCCC(=O)N2)nc2ccccc12,> 4 mM (inactive)
22,CC1CCN(S(=O)(=O)N(C)C)CC1,> 4 mM (inactive)

row,SMILES,Kd
1,CC(C)=CCOc1c2occc2cc2ccc(=O)oc12,> 4 mM (inactive)
2,CCC1=Nc2ccccc2-c2nnc(SC)nc2O1,> 4 mM (inactive)
3,C[C@]12CC(=O)C3C(CC[C@@H]4C[C@H](O)CC[C@]34C)C1CC[C@]2(O)C(=O)CO (some centres not stated),> 4 mM (inactive)
4,Cc1nc(SCC#N)c2c3c(sc2n1)CCC3,> 4 mM (inactive)
5,O=C(O)Cn1cc(C(=O)c2cccs2)c2ccccc21,> 4 mM (inactive)
6,C=CCSCC=C,> 4 mM (inactive)
7,O=S1(=O)CCC(NC(=S)Nc2ccccn2)C1 (configuration not stated),> 4 mM (inactive)
8,c1ccc(CNc2ncnc3nc[nH]c23)nc1,> 4 mM (inactive)
9,Nc1ncnc(Cl)c1[N+](=O)[O-],> 4 mM (inactive)
10,CC(=O)Nc1cc(C(N)=O)cc(C(N)=O)c1,> 4 mM (inactive)
11,COc1cc2ccc(=O)oc2c2ccoc12,> 4 mM (inactive)
12,O=C(Nc1nnc(C(F)(F)F)s1)c1cccnc1,> 4 mM (inactive)
13,Cc1cccc(-c2nnc(-c3ccc(N)cc3)o2)c1,> 4 mM (inactive)
14,CC(=O)Nc1ccc(S(=O)(=O)Nc2cc(C)on2)cc1,> 4 mM (inactive)
15,CS(=O)(=O)Nc1cc2c3c(c1)CCN3C(=O)CC2,> 4 mM (inactive)
16,O=c1[nH]c2ccccc2c(=O)n1CCCO,> 4 mM (inactive)
17,CC(=O)O[C@H]1C[C@@H](OC(C)=O)C(C)(C)C2C[C@@H](O)[C@]3(C)C(CC[C@@]4(C)[C@H](c5ccoc5)OC(=O)[C@H]5O[C@]543)[C@]21C (some centres not stated),> 4 mM (inactive)
18,Cc1nc2nc(COc3ccccc3)nn2c(C)c1Cl,> 4 mM (inactive)
19,OCc1sccc1-n1cccc1,> 4 mM (inactive)
20,O=C1CSC(=O)N1CNc1ccccc1,> 4 mM (inactive)
21,O=C1CCCC2C3CC(CN12)[C@@H]1CCCCN1C3 (some centres not stated),> 4 mM (inactive)
